{
  "source": "patent US20240390311A1",
  "about": "(priority 2020, published 2024)",
  "key": {"MHV-1": {"test_system": "MHV-1", "format": "in vivo, A/J mice", "conditions": "for body weight loss / death rate / disease (illness) scores / lung coefficient index: Example 2, in water: GABA 2 mg/mL, homotaurine 0.25 mg/mL, baclofen 0.25 mg/mL, vs untreated controls"}, "SARS-CoV-2 [1]": {"test_system": "SARS-CoV-2", "format": "in vivo, K18-hACE2 mice", "conditions": "for mice surviving on days 7-8 post-infection: control 20%"}, "SARS-CoV-2 [2]": {"test_system": "SARS-CoV-2", "format": "in vivo, K18-hACE2 mice"}, "SARS-CoV-2 [3]": {"test_system": "SARS-CoV-2", "conditions": "NIH (NCATS) screen; cited from earlier work"}, "[4]": {"conditions": "cited from earlier work"}, "[5]": {"test_system": "autoreactive Th1 and Th17 cells", "conditions": "cited from earlier work; for disease progression in mouse models of type 1 diabetes, multiple sclerosis, and rheumatoid arthritis: administration of GABA or homotaurine; for CD4+ and CD8+ Treg responses / autoreactive Th1 and Th17 cells: in vivo administration"}, "[6]": {"conditions": "GABA 2 mg/mL treated vs untreated infected mice"}, "[7]": {"conditions": "GABA 2 mg/mL vs untreated infected mice, p<0.001"}, "[8]": {"conditions": "GABA-treated vs SC group, no statistically significant difference"}, "[9]": {"conditions": "hundreds of epilepsy patients, long-term studies"}},
  "note": "Where two headings read alike, the source gives them in different places.",
  "data": [
    {"smiles": "NCC(CC(=O)O)c1ccc(Cl)cc1", "note": "(stereo not drawn) [Baclofen, baclofen]", "values": [
      {"measurement": "body weight loss", "setting": "MHV-1", "value": "did not significantly decrease"},
      {"measurement": "death rate", "setting": "MHV-1", "value": "did not significantly decrease"},
      {"measurement": "disease (illness) scores", "setting": "MHV-1", "value": "slight but significant ability to reduce"},
      {"measurement": "lung coefficient index", "setting": "MHV-1", "value": "did not significantly decrease"}
    ]},
    {"smiles": "NCCCC(=O)O", "note": "[GABA, gamma-aminobutyric acid]", "values": [
      {"measurement": "body weight loss", "setting": "MHV-1", "value": "significantly reduced"},
      {"measurement": "death rate", "setting": "MHV-1", "value": "significantly reduced"},
      {"measurement": "disease (illness) scores", "setting": "MHV-1", "value": "significantly reduced"},
      {"measurement": "highest average illness score", "setting": "MHV-1; GABA 20 mg/ml immediately after inoculation, day 7 post-infection, scale 0-5", "value": 1.6},
      {"measurement": "body weight at 14 days post-infection, of starting weight", "setting": "MHV-1; GABA 20 mg/ml starting 3 days post-infection", "value": 90, "unit": "%"},
      {"measurement": "maximum mean illness score", "setting": "MHV-1; GABA 20 mg/ml starting 3 days post-infection, scale 0-5", "value": 2.5},
      {"measurement": "mice that died", "setting": "MHV-1; GABA 20 mg/ml starting 3 days post-infection, up to 14 days (death on day 9)", "value": "1/9"},
      {"measurement": "average body weight below starting weight 14 days post-infection", "setting": "MHV-1; GABA 20 mg/ml starting immediately after MHV-1 inoculation", "value": 7, "unit": "%"},
      {"measurement": "mice that died", "setting": "MHV-1; GABA 20 mg/ml starting immediately after MHV-1 inoculation, up to 14 days, control 3/9 survived", "value": "none"},
      {"measurement": "mice survived at end of study on day 7", "setting": "SARS-CoV-2 [1]; Example 4, GABA 2 mg/mL started 2 days post-infection, control 22%, p=0.004", "value": 88, "unit": "%"},
      {"measurement": "longitudinal mean illness scores", "setting": "SARS-CoV-2 [1]; Example 4, GABA 2 mg/mL started 2 days post-infection, overall p=0.002", "value": "reduced"},
      {"measurement": "mice that died during the 7-day observation period", "setting": "SARS-CoV-2 [1]; Trial 1, GABA 0.2 mg/mL in water, control 3/5 died", "value": "none"},
      {"measurement": "mice surviving on days 7-8 post-infection", "setting": "SARS-CoV-2 [1]; Trial 2, GABA 0.2 mg/mL, p=0.004", "value": 80, "unit": "%"},
      {"measurement": "mice surviving on days 7-8 post-infection", "setting": "SARS-CoV-2 [1]; Trial 2, GABA 2 mg/mL, p=0.018", "value": 80, "unit": "%"},
      {"measurement": "illness scores", "setting": "SARS-CoV-2 [1]; Trial 2, GABA 0.2 or 2.0 mg/mL in water from infection, vs control", "value": "significantly reduced"},
      {"measurement": "serum GM-CSF level", "setting": "SARS-CoV-2 [2]; [6]", "value": "not found to have a statistically significant difference"},
      {"measurement": "serum IFNα level", "setting": "SARS-CoV-2 [2]; [6]", "value": "not found to have a statistically significant difference"},
      {"measurement": "serum IFNβ level", "setting": "SARS-CoV-2 [2]; [6]", "value": "not found to have a statistically significant difference"},
      {"measurement": "serum IFNγ level", "setting": "SARS-CoV-2 [2]; [6]", "value": "not found to have a statistically significant difference"},
      {"measurement": "serum IL-12 level", "setting": "SARS-CoV-2 [2]; [6]", "value": "not found to have a statistically significant difference"},
      {"measurement": "serum IL-10 levels", "setting": "SARS-CoV-2 [2]; [7]", "value": "further significantly elevated"},
      {"measurement": "serum IP-10 (CXCL10) levels", "setting": "SARS-CoV-2 [2]; [7]", "value": "significantly reduced"},
      {"measurement": "TNFα production (serum)", "setting": "SARS-CoV-2 [2]; GABA 2 mg/mL vs untreated infected, p<0.001", "value": "significantly mitigated"},
      {"measurement": "mice with detectable IFNβ levels", "setting": "SARS-CoV-2 [2]; GABA 2 mg/mL, 1/10 in healthy and infected control groups", "value": "3/10"},
      {"measurement": "mice with high levels of IFNγ", "setting": "SARS-CoV-2 [2]; GABA 2 mg/mL, 3/10 in untreated infected group", "value": "1/10"},
      {"measurement": "median and mean levels of IFNα", "setting": "SARS-CoV-2 [2]; GABA treated vs. untreated infected group, p=0.14", "value": "slightly elevated"},
      {"measurement": "serum IL-1β level", "setting": "SARS-CoV-2 [2]; [8]", "value": "slightly reduced"},
      {"measurement": "serum IL-6 level", "setting": "SARS-CoV-2 [2]; [8]", "value": "slightly reduced"},
      {"measurement": "median and mean IFNγ levels", "setting": "SARS-CoV-2 [2]; GABA-treated vs. untreated infected mice, p=0.25", "value": "reduced"},
      {"measurement": "serum CCL2 levels", "setting": "SARS-CoV-2 [2]; GABA-treated vs. untreated-infected mice, p=0.07", "value": "tending to be lower"},
      {"measurement": "serum CCL5 level", "setting": "SARS-CoV-2 [2]; among HC, SC and GABA groups", "value": "No statistically significant difference"},
      {"measurement": "serum CXCL1 level", "setting": "SARS-CoV-2 [2]; among HC, SC and GABA groups", "value": "No statistically significant difference"},
      {"measurement": "SARS-CoV-2 interaction with its cellular receptor", "setting": "SARS-CoV-2 [3]", "value": "did not interfere"},
      {"measurement": "SARS-CoV-2 replication", "setting": "SARS-CoV-2 [3]", "value": "did not interfere"},
      {"measurement": "ability to reduce seizures", "setting": "[4]; [9]", "value": "no clinical benefit"},
      {"measurement": "adverse effects", "setting": "[4]; [9]", "value": "no adverse effects"},
      {"measurement": "safety", "setting": "[4]; phase Ib GABA oral dosing study", "value": "safe"},
      {"measurement": "disease progression in mouse models of type 1 diabetes, multiple sclerosis, and rheumatoid arthritis", "setting": "[5]", "value": "inhibits"},
      {"measurement": "CD4+ and CD8+ Treg responses", "setting": "[5]", "value": "promoting"},
      {"measurement": "autoreactive Th1 and Th17 cells", "setting": "[5]", "value": "inhibits"}
    ]},
    {"smiles": "NCCCS(=O)(=O)O", "note": "[homotaurine]", "values": [
      {"measurement": "body weight loss", "setting": "MHV-1", "value": "significantly reduced"},
      {"measurement": "death rate", "setting": "MHV-1", "value": "significantly reduced"},
      {"measurement": "disease (illness) scores", "setting": "MHV-1", "value": "significantly reduced"},
      {"measurement": "lung coefficient index", "setting": "MHV-1", "value": "significantly reduced"},
      {"measurement": "disease progression in mouse models of type 1 diabetes, multiple sclerosis, and rheumatoid arthritis", "setting": "[5]", "value": "inhibits"},
      {"measurement": "CD4+ and CD8+ Treg responses", "setting": "[5]", "value": "promoting"},
      {"measurement": "autoreactive Th1 and Th17 cells", "setting": "[5]", "value": "inhibits"}
    ]}
  ]
}
